{
  "source": "patent US20080045604A1",
  "about": "“COMPOSITION AND METHOD FOR FACILITATING THE HEALING OF NON-HEALING AND SLOW-HEALING WOUNDS AND ULCERATIONS” (priority 2004, published 2008)",
  "origin": "cited, not measured here",
  "key": {"[1]": {"system": "pathogenic molds and dermatophytes", "settings": "reported medicinal properties"}, "Neisseria gonorrhoeae": {"system": "Neisseria gonorrhoeae", "settings": "Biological Chemistry 2005"}, "Lemma minor": {"system": "Lemma minor", "settings": "Fitoterapia 2005"}},
  "data": [
    {"smiles": "COc1cc(/C=C/C(=O)CC(=O)/C=C/c2ccc(O)c(OC)c2)ccc1O", "note": "[Curcumin, (1E,6E)-1,7-bis(4-hydroxy-3-methoxyphenyl)-1,6-heptadiene-3,5-dione]", "values": [
      {"measurement": "antifungal activity / inhibition of pathogenic molds and dermatophytes", "setting": "[1]", "result": "no antifungal activity"},
      {"measurement": "adherence of bacteria to cells in infection", "setting": "Neisseria gonorrhoeae", "result": "abolished the adherence of bacteria to cells"},
      {"measurement": "phytotoxic against Lemma minor", "setting": "Lemma minor", "result": 100, "unit": "%"}
    ]}
  ]
}
